This is an account of results in ChEMBL document CHEMBL4002577, “Phenylthiazole antibiotics: A metabolism-guided approach to overcome short duration of action” (Eur J Med Chem, 2017).

In brackets after ≈: the same amount, converted by molar mass. Some results are limits rather than exact numbers.

As usually defined, the MIC is the lowest concentration found to suppress growth. Read a high MIC as weaker potency. What is called MBC is the smallest concentration meeting the test's criterion for killing. The term half-life denotes how long it takes for the measured level to halve.

Data set [1] relates to Staphylococcus aureus. Kind of data set: Antibacterial activity against methicillin-resistant Staphylococcus aureus 2658 RCMB after 18 to 20 hrs by broth microdilution method. The class given is functional. (In general: In broth dilution the organism is exposed to a series of concentrations in liquid medium.)
Data set [2] relates to Staphylococcus aureus. Kind of data set: Antibacterial activity against methicillin-resistant Staphylococcus aureus USA400 NRS123 clinical isolate after 18 to 20 hrs by broth microdilution method. The format is functional.
In data set [3] the test system is Staphylococcus aureus. Kind of data set: Antibacterial activity against methicillin/erythromycin/tetracycline-resistant Staphylococcus aureus USA300 NRS384 clinical isolate after 18 to 20 hrs by broth microdilution method. The format is functional.
For data set [4], the system named is Staphylococcus aureus. Kind of data set: Bactericidal activity against mupirocin/rifampicin-resistant Staphylococcus aureus RN4220 NRS107 clinical isolate after 24 hrs. The format is functional. The conditions noted are these: RN4220 NRS107, 24 h.
In data set [5] the test system is Staphylococcus aureus. Kind of data set: Bactericidal activity against vancomycin-resistant Staphylococcus aureus VRSA10 clinical isolate after 24 hrs. The class given is functional. The conditions noted are these: VRSA10, 24 h.
Data set [6] deals with Staphylococcus aureus. Put plainly: Antibacterial activity against vancomycin-resistant Staphylococcus aureus VRSA4 clinical isolate after 18 to 20 hrs by broth microdilution method. The class given is functional.
Data set [7] concerns Staphylococcus aureus. Kind of data set: Bactericidal activity against vancomycin-resistant Staphylococcus aureus VRSA4 clinical isolate after 24 hrs. The format is functional. The conditions noted are these: VRSA4, 24 h.
The test system of data set [8] is Staphylococcus aureus. Kind of data set: Antibacterial activity against vancomycin-resistant Staphylococcus aureus VRSA10 clinical isolate after 18 to 20 hrs by broth microdilution method. The class given is functional.
The test system of data set [9] is Staphylococcus aureus. Put plainly: Antibacterial activity against mupirocin/rifampicin-resistant Staphylococcus aureus RN4220 NRS107 clinical isolate after 18 to 20 hrs by broth microdilution method. The class given is functional.
The subject of data set [10] is Staphylococcus aureus. Put plainly: Bactericidal activity against methicillin/erythromycin/tetracycline-resistant Staphylococcus aureus USA300 NRS384 clinical isolate after 24 hrs. The class given is functional. Particulars: USA300 NRS384, 24 h.
The test system of data set [11] is Staphylococcus aureus. Kind of data set: Bactericidal activity against methicillin/ciprofloxacin/clindamycin-resistant Staphylococcus aureus USA100 NRS382 clinical isolate after 24 hrs. The format is functional. The conditions noted are these: USA100 NRS382, 24 h.
In data set [12] the test system is Staphylococcus aureus. Put plainly: Bactericidal activity against methicillin-resistant Staphylococcus aureus USA400 NRS123 clinical isolate after 24 hrs. The format is functional. The conditions noted are these: USA400 NRS123, 24 h.
The test system of data set [13] is Staphylococcus aureus. Put plainly: Antibacterial activity against methicillin/ciprofloxacin/gentamicin/clindamycin-resistant Staphylococcus aureus USA200 NRS383 clinical isolate after 18 to 20 hrs by broth microdilution method. The class given is functional.
Data set [14] deals with Staphylococcus aureus. Kind of data set: Bactericidal activity against methicillin/ciprofloxacin/gentamicin/clindamycin-resistant Staphylococcus aureus USA200 NRS383 clinical isolate after 24 hrs. The format is functional. The conditions noted are these: USA200 NRS383, 24 h.
Data set [15] has as its system Staphylococcus aureus. Put plainly: Antibacterial activity against methicillin/ciprofloxacin/clindamycin-resistant Staphylococcus aureus USA100 NRS382 clinical isolate after 18 to 20 hrs by broth microdilution method. The class given is functional.
A short description of data set [16]: Intrinsic clearance in human liver microsomes after 10 to 60 mins in absence of NADPH by LC/MS/MS analysis. The class given is ADME, microsome. The conditions noted are these: read-out: CLH.
A short description of data set [17]: Intrinsic clearance in human liver microsomes after 10 to 60 mins in presence of NADPH by LC/MS/MS analysis. The format is ADME, microsome. The conditions noted are these: read-out: CLH. In general terms: Liver microsomes are vesicles of endoplasmic reticulum, rich in cytochrome P450 enzymes.
The nature of data set [18]: Half life in human liver microsomes after 10 to 60 mins in presence of NADPH by LC/MS/MS analysis. The class given is ADME, microsome.
Data set [19] concerns Staphylococcus aureus. Put plainly: Bactericidal activity against methicillin-resistant Staphylococcus aureus USA400 NRS123 clinical isolate assessed as time required to reduce 3 log10CFU of bacterial load at 4 times MIC by time kill assay. The format is functional.
Data set [20] concerns HaCaT. Put plainly: Cytotoxicity against human HaCaT cells assessed as decrease in cell viability up to 32 ug/ml after 2 hrs by MTS assay. The format is cell-based. Background: Formazan colour is commonly taken as a measure of viable cells.
Data set [21] in a line: Half life in human liver microsomes after 10 to 60 mins in absence of NADPH by LC/MS/MS analysis. The class given is ADME, microsome.
The subject of data set [22] is HaCaT. Kind of data set: Cytotoxicity against human HaCaT cells assessed as decrease in cell viability at 64 ug/ml after 2 hrs by MTS assay. The format is cell-based.

Turning to `C/C(=N\NC(=N)N)c1sc(-c2ccc(OCC3CCC3)cc2)nc1C`, in the data set with Staphylococcus aureus [1], the MIC is over 30 µg/mL.

As for `CCCCCCCCCOc1ccc(-c2nc(C)c(/C(C)=N/NC(=N)N)s2)cc1`, the minimum inhibitory concentration (MIC) in the data set on Staphylococcus aureus [2] is 16 µg/mL (≈ 38.5 µM); in the data set with Staphylococcus aureus [3] it was 16 µg/mL (≈ 38.5 µM); in the data set on Staphylococcus aureus [6], 16 µg/mL (≈ 38.5 µM); in the data set on Staphylococcus aureus [8], 16 µg/mL (≈ 38.5 µM); against Staphylococcus aureus [9] it was 16 µg/mL (≈ 38.5 µM); with Staphylococcus aureus [1] it was over 30 µg/mL. This molecule also returned an MIC in the data set with Staphylococcus aureus [13] of 4 µg/mL (≈ 9.62 µM). Also, the minimal bactericidal concentration (MBC) against Staphylococcus aureus [4] was 16 µg/mL (≈ 38.5 µM); against Staphylococcus aureus [5], 16 µg/mL (≈ 38.5 µM); against Staphylococcus aureus [7] it was 16 µg/mL (≈ 38.5 µM); in the data set with Staphylococcus aureus [10], 16 µg/mL (≈ 38.5 µM); against Staphylococcus aureus [11] it was 8 µg/mL (≈ 19.2 µM); in the data set with Staphylococcus aureus [12], 16 µg/mL (≈ 38.5 µM). Also, in the data set on Staphylococcus aureus [14], the MBC was 8 µg/mL (≈ 19.2 µM).

With `C/C(=N\NC(=N)N)c1sc(-c2ccc(OCCCC(C)C)cc2)nc1C`, the MIC was 16 µg/mL (≈ 42.8 µM) with Staphylococcus aureus [2]; 16 µg/mL (≈ 42.8 µM) in the data set with Staphylococcus aureus [3]; 16 µg/mL (≈ 42.8 µM) in the data set on Staphylococcus aureus [6]; 2 µg/mL (≈ 5.35 µM) in the data set on Staphylococcus aureus [15]; 16 µg/mL (≈ 42.8 µM) against Staphylococcus aureus [8]; 16 µg/mL (≈ 42.8 µM) against Staphylococcus aureus [9]. Further, the MIC in the data set on Staphylococcus aureus [1] is 15.6 µg/mL (≈ 41.8 µM); in the data set with Staphylococcus aureus [13], 4 µg/mL (≈ 10.7 µM). Besides, the MBC in the data set on Staphylococcus aureus [4] is 16 µg/mL (≈ 42.8 µM); against Staphylococcus aureus [5], 16 µg/mL (≈ 42.8 µM); in the data set with Staphylococcus aureus [7], 16 µg/mL (≈ 42.8 µM); against Staphylococcus aureus [10], 32 µg/mL (≈ 85.7 µM); with Staphylococcus aureus [11] it was 2 µg/mL (≈ 5.35 µM); in the data set with Staphylococcus aureus [12], 32 µg/mL (≈ 85.7 µM). In the data set on Staphylococcus aureus [14], this molecule displayed an MBC of 16 µg/mL (≈ 42.8 µM).

In the case of `CC(=O)CC(c1ccccc1)c1c(O)c2ccccc2oc1=O` (stereo not given) [WARFARIN], the microsomal CLint in data set [16] and in [17] was under 9.6 µL/min/mg throughout.

`CCCOc1ccc(-c2nc(C)c(/C(C)=N/NC(=N)N)s2)cc1` gave an MIC with Staphylococcus aureus [1] of over 30 µg/mL.

In the case of `CCCCCOc1ccc(-c2nc(C)c(/C(C)=N/NC(=N)N)s2)cc1`, the MIC in the data set with Staphylococcus aureus [1] was determined as 1.95 µg/mL (≈ 5.42 µM); in the data set with Staphylococcus aureus [13], 64 µg/mL (≈ 178 µM). The MBC with Staphylococcus aureus [14] is over 64 µg/mL.

`CC(=O)NC[C@H]1CN(c2ccc(N3CCOCC3)c(F)c2)C(=O)O1` [LINEZOLID]: the MBC was determined as 32 µg/mL (≈ 94.9 µM) in the data set on Staphylococcus aureus [4]; 16 µg/mL (≈ 47.4 µM) against Staphylococcus aureus [5]; 8 µg/mL (≈ 23.7 µM) with Staphylococcus aureus [7]; 16 µg/mL (≈ 47.4 µM) in the data set on Staphylococcus aureus [10]; 16 µg/mL (≈ 47.4 µM) in the data set with Staphylococcus aureus [11]; 32 µg/mL (≈ 94.9 µM) in the data set on Staphylococcus aureus [12]. The molecule also came in with an MBC in the data set on Staphylococcus aureus [14] of 32 µg/mL (≈ 94.9 µM).

As for `CCCCCCOc1ccc(-c2nc(C)c(/C(C)=N/NC(=N)N)s2)cc1`, the half-life in [18] and in data set [21] was over 4 h throughout. Besides, the MIC was 4 µg/mL (≈ 10.7 µM) against Staphylococcus aureus [2]; 4 µg/mL (≈ 10.7 µM) against Staphylococcus aureus [3]; 4 µg/mL (≈ 10.7 µM) against Staphylococcus aureus [6]; 2 µg/mL (≈ 5.35 µM) in the data set on Staphylococcus aureus [15]; 4 µg/mL (≈ 10.7 µM) with Staphylococcus aureus [8]; 4 µg/mL (≈ 10.7 µM) in the data set on Staphylococcus aureus [9]. The MIC against Staphylococcus aureus [1] turned out to be 0.35 µg/mL (≈ 0.937 µM); in the data set on Staphylococcus aureus [13], 1 µg/mL (≈ 2.68 µM). Further, the MBC against Staphylococcus aureus [4] came out at 4 µg/mL (≈ 10.7 µM); with Staphylococcus aureus [5], 4 µg/mL (≈ 10.7 µM); against Staphylococcus aureus [7] it was 4 µg/mL (≈ 10.7 µM); in the data set with Staphylococcus aureus [10], 8 µg/mL (≈ 21.4 µM); in the data set on Staphylococcus aureus [11], 2 µg/mL (≈ 5.35 µM); with Staphylococcus aureus [12] it was 16 µg/mL (≈ 42.8 µM). In the data set on Staphylococcus aureus [14], the MBC was found to be 2 µg/mL (≈ 5.35 µM). Further, the Time with Staphylococcus aureus [19] worked out at 24 h. Also, the Activity result in the data set on HaCaT [20] was “Non-Toxic”; in the data set on HaCaT [22] it was “Toxic”. Further, the microsomal CLint in [16] and in [17] was under 9.6 µL/min/mg throughout.
